Like-named read-outs stand apart in the source and are kept apart here.

What all share (format): biochemical
One assay has as its target T1, TEC (Homo sapiens, UniProt P42680).
T1 sequence (P42680 1-631): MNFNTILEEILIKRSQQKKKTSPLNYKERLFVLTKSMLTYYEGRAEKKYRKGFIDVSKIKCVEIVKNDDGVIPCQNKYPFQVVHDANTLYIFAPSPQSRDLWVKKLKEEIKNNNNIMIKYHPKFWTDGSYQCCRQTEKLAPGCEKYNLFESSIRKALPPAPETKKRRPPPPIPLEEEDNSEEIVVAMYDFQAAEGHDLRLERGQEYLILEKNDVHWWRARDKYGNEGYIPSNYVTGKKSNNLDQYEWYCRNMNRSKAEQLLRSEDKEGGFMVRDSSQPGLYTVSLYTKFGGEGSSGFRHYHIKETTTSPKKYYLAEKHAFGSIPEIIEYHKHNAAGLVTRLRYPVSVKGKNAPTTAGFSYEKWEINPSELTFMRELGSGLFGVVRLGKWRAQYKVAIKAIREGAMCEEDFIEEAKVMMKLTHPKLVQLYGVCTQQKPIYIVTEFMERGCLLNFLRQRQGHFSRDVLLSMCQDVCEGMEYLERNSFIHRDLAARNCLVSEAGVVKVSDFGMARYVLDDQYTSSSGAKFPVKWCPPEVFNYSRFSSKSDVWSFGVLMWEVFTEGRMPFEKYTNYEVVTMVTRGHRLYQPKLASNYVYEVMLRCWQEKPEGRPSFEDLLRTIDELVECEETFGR
In words: Inhibition of a panel of kinases (in vitro HotSpot kinase assay, 33P-ATP, 1 μM ATP). The conditions noted are these: for IC50: HotSpot kinase assay, 1 μM ATP; for TEC/Btk: ratio of TEC IC50 to Btk IC50 (selectivity). The procedure, abridged: (§1)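 At 1 μM ATP spiked with 33P-ATP, substrate phosphorylation by the purified enzymes gives the extent of inhibition.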

Another assay has as its target T2, panel of kinases (Homo sapiens, UniProt P51813).
T2 sequence (P51813 1-675): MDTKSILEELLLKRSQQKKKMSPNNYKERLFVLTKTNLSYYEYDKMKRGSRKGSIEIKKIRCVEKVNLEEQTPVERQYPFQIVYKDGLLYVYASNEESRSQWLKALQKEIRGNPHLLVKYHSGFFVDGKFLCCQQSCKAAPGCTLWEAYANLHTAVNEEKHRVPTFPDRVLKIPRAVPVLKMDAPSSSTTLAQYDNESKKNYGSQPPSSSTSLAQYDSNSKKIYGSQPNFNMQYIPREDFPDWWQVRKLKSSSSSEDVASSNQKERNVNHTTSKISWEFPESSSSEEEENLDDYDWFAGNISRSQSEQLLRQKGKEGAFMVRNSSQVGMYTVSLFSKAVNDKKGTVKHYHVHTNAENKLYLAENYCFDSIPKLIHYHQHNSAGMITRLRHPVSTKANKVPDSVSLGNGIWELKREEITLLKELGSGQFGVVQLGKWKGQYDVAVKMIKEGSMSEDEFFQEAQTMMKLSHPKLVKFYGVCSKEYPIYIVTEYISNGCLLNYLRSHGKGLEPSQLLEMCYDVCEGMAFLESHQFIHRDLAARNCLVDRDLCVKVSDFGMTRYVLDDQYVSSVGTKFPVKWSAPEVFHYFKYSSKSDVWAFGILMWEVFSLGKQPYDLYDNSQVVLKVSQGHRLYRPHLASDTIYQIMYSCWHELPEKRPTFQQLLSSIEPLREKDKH
The assay can be described thus: Inhibition of a panel of kinases (in vitro HotSpot kinase assay, 33P-ATP, 1 μM ATP), other kinases. The conditions noted are these: BMX wild-type, read-out: BMX-WT IC50. The gist of the method: as §1

For another assay, the target named is T3, Btk (Homo sapiens, UniProt Q06187).
T3 construct: purified from insect cells as a full-length construct containing a N-terminal 6X-His tag; His6 (N); made in house; host or cells: insect cells (Method C)
T3 sequence (Q06187 whole entry): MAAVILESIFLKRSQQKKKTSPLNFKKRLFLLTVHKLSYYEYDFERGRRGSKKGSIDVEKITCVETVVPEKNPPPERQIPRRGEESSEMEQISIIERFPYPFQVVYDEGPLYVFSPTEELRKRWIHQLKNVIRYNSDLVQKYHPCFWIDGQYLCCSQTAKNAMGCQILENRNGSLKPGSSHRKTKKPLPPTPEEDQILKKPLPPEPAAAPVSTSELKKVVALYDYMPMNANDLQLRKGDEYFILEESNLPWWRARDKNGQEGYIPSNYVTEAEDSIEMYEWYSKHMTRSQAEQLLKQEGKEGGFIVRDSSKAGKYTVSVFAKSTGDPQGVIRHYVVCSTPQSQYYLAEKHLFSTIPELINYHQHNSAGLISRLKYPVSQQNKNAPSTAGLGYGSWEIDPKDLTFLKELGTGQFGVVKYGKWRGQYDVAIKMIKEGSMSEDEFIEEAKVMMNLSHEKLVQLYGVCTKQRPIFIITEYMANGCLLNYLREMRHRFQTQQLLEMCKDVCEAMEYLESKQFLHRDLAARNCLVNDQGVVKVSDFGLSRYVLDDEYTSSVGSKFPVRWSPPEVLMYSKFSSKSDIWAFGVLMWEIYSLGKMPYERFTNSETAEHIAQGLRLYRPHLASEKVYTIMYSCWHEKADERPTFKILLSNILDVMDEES
In words: Btk in vitro inhibitory activity (one of Method A TR-FRET, Method B electrophoretic mobility shift, Method C radiometric filter binding). The procedure, abridged:
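Three alternative formats were used. A radiometric filter-binding read used 8 nM full-length His-BTK with 0.2 mg/mL poly(Glu-Tyr) 4:1 (C); microfluidic separation of 1 μM FAM-peptide by 1 nM BTK gave IC50 from 12-point curves (B); TR-FRET at Km ATP, 0.5 nM Btk, gave Ki(app)-derived IC50 (A).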
For orientation: A gel shift assay detects complexes by their altered migration in electrophoresis.

The mark [1] stands for this setting: wild-type Btk, read-out: Btk-WT IC50.
[2] abbreviates: method is one of A, B or C, not stated which, read-out: IC50 values against Btk.

As a reminder, the IC50 is the midpoint of a concentration-inhibition curve. `C=CC(=O)N1CC[C@@H](Nc2n[nH]c3nccc(-c4cccc(NC(=O)c5noc(C(C)(C)C)n5)c4C)c23)C1` [Example 267, 5-tert-butyl-N-[2-methyl-3-(3-{[(3R)-1-(prop-2-enoyl)pyrrolidin-3-yl]amino}-1H-pyrazolo[3,4-b]pyridin-4-yl)phenyl]-1,2,4-oxadiazole-3-carboxamide]: the IC50 is 901 nM at TEC, 553 nM on panel of kinases and 164 nM on Btk (setting [1]). The TEC/Btk at TEC was determined as 005.

`C=CC(=O)N[C@@H]1CCN(c2n[nH]c3nccc(-c4ccc(CNC(=O)c5noc(C(C)(C)C)n5)c(F)c4)c23)C1` [Example 102, 5-tert-butyl-N-[(2-fluoro-4-{3-[(3R)-3-(prop-2-enamido)pyrrolidin-1-yl]-1H-pyrazolo[3,4-b]pyridin-4-yl}phenyl)methyl]-1,2,4-oxadiazole-3-carboxamide]: the concentration for half-maximal inhibition (IC50) is 20 nM at TEC, 33 nM at panel of kinases, below 10 nM at Btk (setting [2]) and 0.0652 nM on Btk (setting [1]). At TEC, the TEC/Btk is listed as 305.

As for `CC(C)(C)n1cc(C(=O)NCc2ccc(-c3ccnc4[nH]nc(N[C@@H]5CCNC5)c34)cc2F)cn1` [Example 76, 1-tert-butyl-N-{[2-fluoro-4-(3-{[(3R)-pyrrolidin-3-yl]amino}-1H-pyrazolo[3,4-b]pyridin-4-yl)phenyl]methyl}-1H-pyrazole-4-carboxamide], the IC50 on TEC came out at 8720 nM; on panel of kinases, 8360 nM; on Btk (setting [1]), 51.1 nM. The TEC/Btk at TEC was 171.

As for `CCn1cc(C(=O)NCc2ccc(-c3ccnc4[nH]nc(N[C@H]5CC[C@H](O)CC5)c34)cc2F)cn1` [Compound 20, 1-ethyl-N-{[2-fluoro-4-(3-{[(1r,4r)-4-hydroxycyclohexyl]amino}-1H-pyrazolo[3,4-b]pyridin-4-yl)phenyl]methyl}-1H-pyrazole-4-carboxamide], the values for the IC50 against TEC, at panel of kinases and on Btk (setting [1]) were above 10000 nM, 5280 nM and above 10000 nM, respectively.

As for `C=CC(=O)N[C@H]1CCCC[C@@H]1Nc1n[nH]c2nccc(-c3ccc(CNC(=O)c4cc(C(C)(C)C)on4)c(F)c3)c12` [Example 318, 5-tert-butyl-N-({2-fluoro-4-[3-({(1S,2S)-2-[(prop-2-enoyl)amino]cyclohexyl}amino)-1H-pyrazolo[3,4-b]pyridin-4-yl]phenyl}methyl)-1,2-oxazole-3-carboxamide], the IC50 is 8830 nM against TEC, 3030 nM at panel of kinases and 26.4 nM on Btk (setting [1]).

Turning to `C=CC(=O)N1CC[C@@H](Nc2n[nH]c3nccc(-c4ccc(CCNC(=O)c5noc(C(C)(C)C)n5)c(F)c4)c23)C1` [Example 87, 5-tert-butyl-N-{2-[2-fluoro-4-(3-{[(3R)-1-(prop-2-enoyl)pyrrolidin-3-yl]amino}-1H-pyrazolo[3,4-b]pyridin-4-yl)phenyl]ethyl}-1,2,4-oxadiazole-3-carboxamide], the IC50 against TEC is 685 nM; on panel of kinases, 276 nM; at Btk (setting [2]) it was below 10 nM; at Btk (setting [1]), 1.43 nM. The TEC/Btk at TEC is given as 479.

For the compound `C=CC(=O)N[C@H]1CC[C@@H](Nc2n[nH]c3nccc(-c4ccc(CNC(=O)c5noc(C(C)(C)C)n5)c(F)c4)c23)C1` [Example 320, 5-tert-butyl-N-({2-fluoro-4-[3-({(1R,3S)-3-[(prop-2-enoyl)amino]cyclopentyl}amino)-1H-pyrazolo[3,4-b]pyridin-4-yl]phenyl}methyl)-1,2,4-oxadiazole-3-carboxamide], the results for the IC50 on TEC, at panel of kinases and at Btk (setting [1]) were 58.5 nM, 86.7 nM and 0.0637 nM, respectively.

As for `C=CC(=O)N1CC[C@@H](Nc2n[nH]c3nccc(-c4ccc(CNC(=O)c5coc(C(C)(C)C)n5)c(F)c4)c23)C1` [Example 295, 2-tert-butyl-N-{[2-fluoro-4-(3-{[(3R)-1-(prop-2-enoyl)pyrrolidin-3-yl]amino}-1H-pyrazolo[3,4-b]pyridin-4-yl)phenyl]methyl}-1,3-oxazole-4-carboxamide], the IC50 at TEC is 45.5 nM; at panel of kinases, 107 nM; on Btk (setting [1]) it was 0.171 nM.

`CC(C)(C)c1n[nH]c(C(=O)NCc2ccc(-c3ccnc4[nH]nc(N[C@@H]5CCNC5)c34)cc2F)n1` [Example 78, 3-tert-butyl-N-{[2-fluoro-4-(3-{[(3R)-pyrrolidin-3-yl]amino}-1H-pyrazolo[3,4-b]pyridin-4-yl)phenyl]methyl}-1H-1,2,4-triazole-5-carboxamide]: the half-inhibitory concentration (IC50) against TEC, at panel of kinases and at Btk (setting [1]) was above 10000 nM in each case.

`CC(C)(C)c1nc(C(=O)NCc2ccc(-c3ccnc4[nH]nc(NC5CCNCC5)c34)cc2F)no1` [Example 109, 5-tert-butyl-N-[(2-fluoro-4-{3-[(piperidin-4-yl)amino]-1H-pyrazolo[3,4-b]pyridin-4-yl}phenyl)methyl]-1,2,4-oxadiazole-3-carboxamide]: the IC50 was 8400 nM at TEC, 4180 nM on panel of kinases and 30.1 nM at Btk (setting [1]).

With `C=CC(=O)N1CC[C@@H](Nc2n[nH]c3nccc(-c4ccc([C@H](C)NC(=O)c5noc(C(C)(C)C)n5)cc4)c23)C1` [Example 95, 5-tert-butyl-N-[(1S)-1-[4-(3-{[(3R)-1-(prop-2-enoyl)pyrrolidin-3-yl]amino}-1H-pyrazolo[3,4-b]pyridin-4-yl)phenyl]ethyl]-1,2,4-oxadiazole-3-carboxamide], the figures for the IC50 against TEC, at panel of kinases and at Btk (setting [1]) were 924 nM, 774 nM and 67.9 nM, respectively. At TEC, the TEC/Btk worked out at 14.

Consider `CC(C)(C)c1nc(C(=O)NCc2ccc(-c3ccnc4[nH]nc(N[C@@H]5CCNC5)c34)cc2F)no1` [Compound 2, (R)-5-(tert-butyl)-N-(2-fluoro-4-(3-(pyrrolidin-3-ylamino)-1H-pyrazolo[3,4-b]pyridin-4-yl)benzyl)-1,2,4-oxadiazole-3-carboxamide], for which the figures for the IC50 against TEC, on panel of kinases and at Btk (setting [1]) were 950 nM, 1980 nM and 11.6 nM, respectively. In addition, the TEC/Btk at TEC came to 82.

Take `CN1CCCN([C@@H]2CCN(c3n[nH]c4nccc(-c5ccc(CNC(=O)c6noc(C(C)(C)C)n6)c(F)c5)c34)C2)C1=O` [Example 250, 5-tert-butyl-N-[(2-fluoro-4-{3-[(3R)-3-(3-methyl-2-oxo-1,3-diazinan-1-yl)pyrrolidin-1-yl]-1H-pyrazolo[3,4-b]pyridin-4-yl}phenyl)methyl]-1,2,4-oxadiazole-3-carboxamide]: the values for the IC50 on TEC, on panel of kinases and at Btk (setting [1]) were 6920 nM, 8370 nM and 11.7 nM, respectively. Also, the TEC/Btk at TEC was 591.

With `C[C@H]1CC[C@@H](Nc2n[nH]c3nccc(-c4ccc(CNC(=O)c5nc(C(C)(C)C)no5)c(F)c4)c23)CN1` [Example 147, 3-tert-butyl-N-{[2-fluoro-4-(3-{[(3R,6S)-6-methylpiperidin-3-yl]amino}-1H-pyrazolo[3,4-b]pyridin-4-yl)phenyl]methyl}-1,2,4-oxadiazole-5-carboxamide], the IC50 is above 10000 nM at TEC, 5530 nM on panel of kinases and 84.4 nM at Btk (setting [1]). On TEC, the TEC/Btk is above 100.
